Experimental findings from patent US12215123B2, “Cordycepin-based derivatized compound with anti-tumor effect” (NANJING TECH UNIVERSITY, priority 2022, dated 2025) are described below.

The test system of test [1] is small cell lung cancer cell line H446. The test can be described thus: MTT proliferation, small cell lung cancer cell line H446. It counts as cell-based. To be noted: read-out: IC50 (μM) of compounds in small cell lung cancer cells, H446. The method, boiled down: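 MTT assay: cells seeded at 2 to 4×10^4 cells/mL, grown 24 h, then exposed to compound for 72 h. MTT added for 4 h, formazan dissolved in DMSO and absorbance read at 570 nm; IC50 taken from the S-shaped concentration-inhibition curve.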

In test [2] the test system is IDB ovarian cancer cells. Briefly: Mouse transplanted ovarian cancer model. It counts as in vivo, C57BL/6j nude mice. To be noted: ovarian cancer transplanted mice, 15 days, 500 ug/time/animal intragastric. The procedure:
(§1) The feeding of the mouse model in the drug evaluation follows that: mice are fed and treated in a laminar flow cabinet, with 5 nude mice in each cage, drinking water and feedstuffs are added once every 3 days, and paddings are replaced once a week; a number of mice kept in each cage is no more than 5, the mice in separate cages are kept in groups as far as possible, and the mice should not be kept in a single cage; the animal management must conform to the relevant national standards on animal feeding management, and the behavioral needs of animals should be concerned at the same time to avoid unnecessary stress; the normal physiological and behavioral needs of animals, such as defecation, urination, constant body temperature maintenance, normal activities, posture adjustment and reproduction are met; good ventilation and dry animals are kept; the animals can access to drinking water and food at will, and supplementation, replacement and cleaning operations are easily carried out; a solid and safe environment is provided to avoid accidents of animals, such as escaping or limb trapping in a gap; the animals are avoided from being damaged by sharp edges or protrusions; and the animals are not disturbed during observation.
A mouse transplanted ovarian cancer model was established and a drug was evaluated. […]

Test [3] has as its system pancreatic cancer Pan02-luc cells. The test can be described thus: Mouse transplanted pancreatic cancer model, survival. It counts as in vivo, C57BL/6j nude mice. As to conditions: intragastric 500 ug/time/animal every day for 24 days, control 41 days. The method, then:
as §1, with “observation. […]” for “observation.”

Like-named read-outs stand apart in the source and are kept apart here. Bounds are passed on as bounds.

As for `CC(C)OC(=O)C(C)NP(=O)(COC[C@@H]1CC(O)[C@H](n2cnc3c(NC(=O)c4ccncc4)ncnc32)O1)Oc1ccccc1` (stereo partly drawn) [Compound 24, isopropyl((((4-hydroxy-5-(6-(isonicotinamide)-9H-purin-9-yl)tetrahydrofuran-2-yl)methoxy)methyl)(phenoxy)phosphoryl)alanine ester], the IC50 (in general, the point on the concentration scale where inhibition reaches its midpoint) in test [1] (Homo sapiens, NCI-H446, 72 h) turned out to be 17.2 µM. The “tumor size reduced by (times) versus control” value in test [2] was “about 2 times”. In test [3], the “survival time of the tumor-bearing mice (median survival time)” value turned out to be 76 days.
With `Nc1ncnc2c1ncn2[C@@H]1O[C@H](CO)C[C@H]1O` [Cordycepin, 3′-deoxyadenosine], the 50% inhibitory concentration (IC50) in test [1] (Homo sapiens, NCI-H446, 72 h, MTT, 72 hours, H446) was greater than 100 µM; in test [1] (MTT, 72 hours, H446), 123 µM. The “survival time of the tumor-bearing mice (median survival time)” value in test [3] worked out at 52 days.
